Measured values reported in the supplement of paper PMC10307832.

Experiments:
Test in all cases: relative viability (nuclei count vs DMSO), 5 days (fraction); higher = more cells survive
Midostaurin + Navitoclax = compound: CO[C@@H]1[C@H](N(C)C(=O)c2ccccc2)C[C@H]2O[C@]1(C)n1c3ccccc3c3c4c(c5c6ccccc6n2c5c31)C(=O)NC4 [Midostaurin] + CC1(C)CCC(c2ccc(Cl)cc2)=C(CN2CCN(c3ccc(C(=O)NS(=O)(=O)c4ccc(N[C@H](CCN5CCOCC5)CSc5ccccc5)c(S(=O)(=O)C(F)(F)F)c4)cc3)CC2)C1 [Navitoclax] (partner 0.5 µM)
Summary of the method: (§1)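 Medians of duplicate plates are given as relative viability. That measure is the nuclei count in treated wells divided by the count in vehicle wells. Counts were taken on 4× images of lung cancer cell lines in 1536-well plates, 5 days after pin-tool dosing the day after seeding with one drug alone or a fixed anchor-drug dose plus five library-drug doses (not always all listed) in √10 steps.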

[1] = compound: COc1cc(-c2nn([C@H]3CC[C@H](N4CCN(C(C)=O)CC4)CC3)c3ncnc(N)c23)ccc1NC(=O)c1cc2ccccc2n1C + CC(=O)Nc1cccc(-n2c(=O)n(C3CC3)c(=O)c3c(Nc4ccc(I)cc4F)n(C)c(=O)c(C)c32)c1 [Trametinib] (partner 0.02 µM)
Summary of the method: as §1

[2] = compound: COc1cc(-c2nn([C@H]3CC[C@H](N4CCN(C(C)=O)CC4)CC3)c3ncnc(N)c23)ccc1NC(=O)c1cc2ccccc2n1C
Summary of the method: (§2)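 Viability was read as treated-well nuclei divided by vehicle-well nuclei, using the median across plates. Lung cancer cell lines in 1536-well plates were kept overnight at 37 °C, pinned with five √10-spaced library-drug doses, and after 5 days were Hoechst-stained, imaged at 4× and counted in MetaXpress. Plates passed only with control CV below 25% and at least one doubling.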

Midostaurin = compound: CO[C@@H]1[C@H](N(C)C(=O)c2ccccc2)C[C@H]2O[C@]1(C)n1c3ccccc3c3c4c(c5c6ccccc6n2c5c31)C(=O)NC4 [Midostaurin]
Summary of the method: as §2

Midostaurin + Foretinib = compound: CO[C@@H]1[C@H](N(C)C(=O)c2ccccc2)C[C@H]2O[C@]1(C)n1c3ccccc3c3c4c(c5c6ccccc6n2c5c31)C(=O)NC4 [Midostaurin] + COc1cc2c(Oc3ccc(NC(=O)C4(C(=O)Nc5ccc(F)cc5)CC4)cc3F)ccnc2cc1OCCCN1CCOCC1 [Foretinib] (partner 0.25 µM)
Summary of the method: as §1

Cell Line | relative viability (Midostaurin + Navitoclax; first compound 0.01 µM) | relative viability (Midostaurin + Navitoclax; first compound 0.03162 µM) | relative viability (Midostaurin + Navitoclax; first compound 0.1 µM) | relative viability (Midostaurin + Navitoclax; first compound 0.3162 µM) | relative viability ([1]; first compound 0.0128 µM) | relative viability ([1]; first compound 0.04048 µM) | relative viability ([1]; first compound 0.128 µM) | relative viability ([1]; first compound 1.28 µM) | relative viability ([2]; 0.0128 µM) | relative viability ([2]; 0.04048 µM) | relative viability ([2]; 0.128 µM) | relative viability ([2]; 1.28 µM) | relative viability (Midostaurin; 0.01 µM) | relative viability (Midostaurin; 0.03162 µM) | relative viability (Midostaurin; 0.1 µM) | relative viability (Midostaurin; 0.3162 µM) | relative viability (Midostaurin + Foretinib; first compound 0.01 µM) | relative viability (Midostaurin + Foretinib; first compound 0.03162 µM) | relative viability (Midostaurin + Foretinib; first compound 0.1 µM) | relative viability (Midostaurin + Foretinib; first compound 0.3162 µM)
HCC-44 | 0.949 | 0.982 | 0.831 | 0.96 | 1.19 | 0.716 | 1.07 | 1.03 | 1.06 | 1.13 | 0.954 | 1.17 | 1 | 0.965 | 0.996 | 0.985 |  |  |  | 
NCI-H1623 |  |  |  |  |  |  |  |  | 1.01 | 1.05 | 0.946 | 0.739 | 0.982 | 0.956 | 1.05 | 1.23 | 0.995 | 0.876 | 0.949 | 0.941
NCI-H1563 |  |  |  |  |  |  |  |  | 1.04 | 1.12 | 0.971 | 0.709 | 1.09 | 1.03 | 0.957 | 0.769 | 0.985 | 0.976 | 0.847 | 0.785
ABC-1 |  |  |  |  |  |  |  |  | 0.879 | 0.885 | 0.756 | 0.805 | 0.867 | 0.962 | 0.948 | 0.96 | 1.03 | 1.14 | 0.828 | 1.11
NCI-H522 |  |  |  |  | 0.77 | 0.514 | 0.723 | 0.73 | 0.936 | 0.875 | 0.954 | 0.885 | 1.07 | 1.06 | 0.947 | 1.04 |  |  |  | 
SW 900 |  |  |  |  | 1.05 | 0.82 | 0.778 | 0.432 | 1.03 | 0.986 | 0.788 | 1 | 0.821 | 0.777 | 0.964 | 0.745 | 0.876 | 0.746 | 0.822 | 0.763
A549 | 1.2 | 1.08 | 1.08 | 0.77 |  |  |  |  | 0.995 | 0.952 | 0.979 | 0.957 | 0.994 | 0.857 | 0.953 | 0.744 | 0.871 | 0.781 | 0.939 | 0.99
NCI-H1792 | 0.613 | 0.591 | 0.601 | 0.647 | 0.433 | 0.132 | 0.401 | 0.348 | 0.975 | 0.878 | 1.02 | 0.951 | 0.954 | 0.697 | 0.929 | 0.777 |  |  |  | 
NCI-H1703 | 1.21 | 0.974 | 0.75 | 0.312 |  |  |  |  | 0.968 | 0.581 | 0.803 | 0.324 | 0.958 | 0.869 | 0.64 | 0.266 | 0.351 | 0.316 | 0.292 | 0.325
LCLC-103H |  |  |  |  | 0.717 | 0.58 | 0.583 | 0.664 | 1.06 | 1.01 | 1 | 1.07 | 1.05 | 0.922 | 0.979 | 1 | 0.729 | 0.661 | 0.656 | 0.791
Calu-6 | 0.69 | 0.757 | 0.709 | 0.697 |  |  |  |  | 1.04 | 1.04 | 0.899 | 0.764 | 0.946 | 0.984 | 0.985 | 1.01 | 0.879 | 0.921 | 0.89 | 0.835
NCI-H358 |  |  |  |  | 0.153 | 0.125 | 0.131 | 0.115 | 0.889 | 0.703 | 0.702 | 0.335 | 0.949 | 0.93 | 1.08 | 0.85 | 0.821 | 0.784 | 0.706 | 0.662
NCI-H1648 |  |  |  |  | 0.478 | 0.311 | 0.386 | 0.293 | 0.964 | 0.766 | 0.858 | 0.721 | 0.937 | 0.803 | 0.724 | 0.927 |  |  |  | 
EBC-1 | 0.49 | 0.453 | 0.429 | 0.312 |  |  |  |  | 1.06 | 1.07 | 1.01 | 1.02 | 1.01 | 0.9 | 0.959 | 0.684 | 0.104 | 0.103 | 0.112 | 0.102
NCI-H1299 | 1.07 | 0.989 | 1.01 | 1.01 |  |  |  |  | 1.06 | 1.11 | 1 | 1 | 1.01 | 0.974 | 0.975 | 0.965 | 1.07 | 1.04 | 1.05 | 0.976
NCI-H2342 |  |  |  |  | 0.92 | 0.766 | 0.886 | 0.745 | 0.807 | 1.03 | 1 | 0.932 | 0.913 | 0.903 | 1.04 | 0.989 | 1.03 | 0.933 | 0.961 | 0.92
IA-LM | 0.81 |  | 0.701 | 0.631 |  |  |  |  | 1.04 | 0.999 | 1.05 | 0.991 | 0.93 | 0.677 | 0.918 | 0.941 | 1.15 | 0.86 | 1.23 | 1.05
NCI-H650 |  |  |  |  | 0.993 | 0.501 | 1.15 | 0.879 | 1.13 | 1.25 | 0.911 | 1.01 | 0.779 | 0.844 | 0.922 | 0.858 | 0.959 | 0.95 | 1.01 | 0.767
NCI-H661 |  |  |  |  | 0.474 | 0.469 | 0.557 | 0.506 | 1.02 | 1.07 | 1 | 0.779 | 0.963 | 0.869 | 0.991 | 1.11 | 0.903 | 0.847 | 1.02 | 1.04
